Source: ChEMBL document CHEMBL1201862, “PubChem BioAssay data set” (2004)
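Tested at 5 concentrations; 48 h exposure; 96-well plates; endpoints linearly interpolated, else capped at highest concentration. At the GI50, growth is halved.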 Activity calls are given as the source filed them. Cut-off read from the data, not from the text of the source: active = GI50 up to about 1.1 µM and inactive = higher.

How the values were obtained:
Experiment in all cases: growth of human tumour cells (NCI), 48 h
[1] = tested on: HCT-15
[2] = tested on: 786-0
[3] = tested on: NCI/ADR-RES
[4] = tested on: HOP-62
[5] = tested on: HT-29
[6] = tested on: HCT-116
[7] = tested on: OVCAR-8
[8] = tested on: OVCAR-5
[9] = tested on: LOX IMVI
[10] = tested on: MDA-MB-435
[11] = tested on: RXF 393
[12] = tested on: EKVX
[13] = tested on: SK-OV-3
[14] = tested on: SF-268
[15] = tested on: UACC-257
[16] = tested on: CCRF-CEM
[17] = tested on: SF-295
[18] = tested on: NCI-H226
[19] = tested on: UO-31

Compound | GI50 [1] [µM] | GI50 [2] | GI50 [3] | GI50 [4] | GI50 [5] | GI50 [6] | GI50 [7] | GI50 [8] | GI50 [9] | GI50 [10] | GI50 [11] | GI50 [12] | GI50 [13] | GI50 [14] | GI50 [15] | GI50 [16] | GI50 [17] | GI50 [18] | GI50 [19]
C=C(C)C1(Sc2ccc(OC)cc2)CC1 | 24.4 | 29.6 µM (inactive) | 37.4 µM (inactive) | 34.1 µM (inactive) | 22.3 µM (inactive) | 27.2 µM (inactive) | 33 µM (inactive) | 34.2 µM (inactive) | 17.3 µM (inactive) | 7.94 µM (inactive) | 17.6 µM (inactive) | 27.6 µM (inactive) | 30.5 µM (inactive) | 15.8 µM (inactive) | 21.2 µM (inactive) | 17.5 µM (inactive) | 26.9 µM (inactive) | 4.81 µM (inactive) | 12.2 µM (inactive)
C=C(C)[C@@]1(O)CCC[C@H]1NC(=O)OC(C)(C)C | > 100 | > 100 µM (inactive) | > 100 µM (inactive) | > 100 µM (inactive) | > 100 µM (inactive) | > 100 µM (inactive) | > 100 µM (inactive) | > 100 µM (inactive) | > 100 µM (inactive) | > 100 µM (inactive) | > 100 µM (inactive) | > 100 µM (inactive) | > 100 µM (inactive) | > 100 µM (inactive) | > 100 µM (inactive) | 84.9 µM (inactive) | > 100 µM (inactive) | > 100 µM (inactive) | > 100 µM (inactive)
Cc1cnc2c(c1)C(=O)C1=C(C2=O)C2OC(=O)CC2OC1(C)C (configuration not stated) | 0.0643 | 0.258 µM (active) | 0.625 µM (active) | 1.18 µM (inactive) | 0.0588 µM (active) | 0.0681 µM (active) | 0.29 µM (active) | 0.301 µM (active) | 0.193 µM (active) | 0.308 µM (active) | 0.205 µM (active) | 0.209 µM (active) | 1.35 µM (inactive) | 0.223 µM (active) | 0.198 µM (active) | 0.0239 µM (active) | 1.25 µM (inactive) | 0.979 µM (active) | 0.458 µM (active)
COC(=O)[C@@](NC(=O)OCc1ccccc1)([C@H](C)O)C(F)(F)F | > 100 | > 100 µM (inactive) | > 100 µM (inactive) | > 100 µM (inactive) | > 100 µM (inactive) | > 100 µM (inactive) | > 100 µM (inactive) | > 100 µM (inactive) | > 100 µM (inactive) | > 100 µM (inactive) | 53.5 µM (inactive) | > 100 µM (inactive) | > 100 µM (inactive) | > 100 µM (inactive) | > 100 µM (inactive) | 57.4 µM (inactive) | > 100 µM (inactive) | > 100 µM (inactive) | > 100 µM (inactive)
Nc1ccccc1OCCCOc1ccccc1N | > 100 | > 100 µM (inactive) | > 100 µM (inactive) | > 100 µM (inactive) | > 100 µM (inactive) | > 100 µM (inactive) | > 100 µM (inactive) | > 100 µM (inactive) | > 100 µM (inactive) | 57.1 µM (inactive) | > 100 µM (inactive) | > 100 µM (inactive) | > 100 µM (inactive) | > 100 µM (inactive) | > 100 µM (inactive) | > 100 µM (inactive) | > 100 µM (inactive) | > 100 µM (inactive) | > 100 µM (inactive)
CC(=O)c1c(C)cn(S(=O)(=O)NC(=O)Nc2nncs2)c1C | > 100 | > 100 µM (inactive) | > 100 µM (inactive) | > 100 µM (inactive) | > 100 µM (inactive) | > 100 µM (inactive) | > 100 µM (inactive) | > 100 µM (inactive) | > 100 µM (inactive) | > 100 µM (inactive) | > 100 µM (inactive) | > 100 µM (inactive) | > 100 µM (inactive) | > 100 µM (inactive) | > 100 µM (inactive) | 23.3 µM (inactive) | > 100 µM (inactive) | 49.2 µM (inactive) | 68.9 µM (inactive)
C=C1C(=O)O[C@H]2[C@@H](O)[C@H](C)CCC/C(C)=C/CC[C@@]3(C)O[C@@H]3C[C@@H]12 | 1.92 | 3.61 µM (inactive) | 6.43 µM (inactive) | 22.3 µM (inactive) | 5.45 µM (inactive) | 3.19 µM (inactive) | 4.38 µM (inactive) | 15.7 µM (inactive) | 4.43 µM (inactive) | 7.5 µM (inactive) | 2.85 µM (inactive) | 4.22 µM (inactive) | 18.5 µM (inactive) | 8.22 µM (inactive) | 9.16 µM (inactive) | 1.07 µM (active) | 18.1 µM (inactive) | 1.53 µM (inactive) | 5.47 µM (inactive)
O=C(NCCc1ccccc1)c1cc(/C=C/c2cc(O)ccc2O)ccc1O | 2.71 | 2.38 µM (inactive) | 3.43 µM (inactive) | 5.69 µM (inactive) | 18.3 µM (inactive) | 1.81 µM (inactive) | 3.85 µM (inactive) | 8.69 µM (inactive) | 4.17 µM (inactive) | 3.96 µM (inactive) | 1.93 µM (inactive) | 2.91 µM (inactive) | 13 µM (inactive) | 3.19 µM (inactive) | 2.64 µM (inactive) | 2.11 µM (inactive) | 15.9 µM (inactive) | 9.66 µM (inactive) | 1.7 µM (inactive)
